Here are results for four compounds from patent US11230538B2, “Herbicides” (SYNGENTA PARTICIPATIONS AG, priority 2016, dated 2022).

Holding throughout (type): in vivo
In assay [1] the test system is Alopecurus myosuroides (ALOMY). The assay can be described thus: B1 Pre-emergence herbicidal activity. Also noted: key: 5=total damage to plant; 0=no damage to plant. The settings on record: pre-emergence application, rate 1000 g/ha, evaluated after 13 days. The essentials: (§1)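 Sow in soil → 1 d glasshouse (24/16 °C, 14 h light, 65% RH) → spray pre-emergence (acetone/water 50:50, 0.5% Tween 20) → grow 13 d, water twice daily → score 0–5 (5 = total damage).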

Assay [2] deals with Avena fatua (AVEFA). The assay is described as follows: B1 Pre-emergence herbicidal activity. Also noted: key: 5=total damage to plant; 0=no damage to plant. The settings on record: pre-emergence application, rate 1000 g/ha, evaluated after 13 days. In short, it runs like this: as §1
For assay [3], the system named is Triticum aestivium (TRZAW). The assay is described as follows: B1 Pre-emergence herbicidal activity. Also noted: key: 5=total damage to plant; 0=no damage to plant. The settings on record: pre-emergence application, rate 1000 g/ha, evaluated after 13 days. In short, it runs like this:
as §1

Assay [4] concerns Echinochloa crus-galli (ECHCG). The assay can be described thus: B1 Pre-emergence herbicidal activity. The note with it: pre-emergence application, rate 1000 g/ha, evaluated after 13 days. In short, it runs like this: as §1
Assay [5] relates to Lolium perenne (LOLPE). The assay is described as follows: B1 Pre-emergence herbicidal activity. Also noted: key to Pre-emergence herbicidal activity, LOLPE (damage score 0-5): 5=total damage to plant; 0=no damage to plant. The note with it: pre-emergence application, rate 1000 g/ha, evaluated after 13 days. In short, it runs like this:
as §1

Assay [6] deals with Setaria fabenr (SETFA). The assay can be described thus: B1 Pre-emergence herbicidal activity. Also noted: key to Pre-emergence herbicidal activity, SETFA (damage score 0-5): 5=total damage to plant; 0=no damage to plant. The settings on record: pre-emergence application, rate 1000 g/ha, evaluated after 13 days. The essentials: as §1
Assay [7] has as its system Avena fatua (AVEFA). The assay can be described thus: B2 Post-emergence herbicidal activity. The note with it: post-emergence application, rate 1000 g/ha, evaluated after 13 days. In short, it runs like this:
(§2)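 Test seeds are sown in standard soil and raised for 8 days under controlled glasshouse conditions (24/16 °C, 14 h light, 65% humidity). Foliage is then sprayed with compound formulated in 50:50 acetone/water plus 0.5% Tween 20, and plants are rated 0–5 for damage after 13 days.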

Assay [8] relates to Echinochloa crus-galli (ECHCG). The assay is described as follows: B2 Post-emergence herbicidal activity. More on the design: key to Post-emergence herbicidal activity, ECHCG (damage score 0-5): 5=total damage to plant; 0=no damage to plant. The note with it: post-emergence application, rate 1000 g/ha, evaluated after 13 days. The essentials:
as §2

Assay [9] deals with Lolium perenne (LOLPE). The assay is described as follows: B2 Post-emergence herbicidal activity. The note with it: post-emergence application, rate 1000 g/ha, evaluated after 13 days. The essentials:
as §2

Assay [10] has as its system Alopecurus myosuroides (ALOMY). The assay is described as follows: B2 Post-emergence herbicidal activity. More on the design: key: 5=total damage to plant; 0=no damage to plant. The note with it: post-emergence application, rate 1000 g/ha, evaluated after 13 days. The essentials: as §2
Assay [11] concerns Setaria fabenri (SETFA). The assay can be described thus: B2 Post-emergence herbicidal activity. More on the design: key: 5=total damage to plant; 0=no damage to plant. The note with it: post-emergence application, rate 1000 g/ha, evaluated after 13 days. In short, it runs like this: as §2
The test system of assay [12] is Triticum aestivium (TRZAW). The assay can be described thus: B2 Post-emergence herbicidal activity. Also noted: key: 5=total damage to plant; 0=no damage to plant. The settings on record: post-emergence application, rate 1000 g/ha, evaluated after 13 days. The essentials:
as §2

The structures appear in SMILES notation.

As to `O=C(CCl)Nc1ccc(-c2cncc(F)c2)nc1C(F)(F)F` [Compound C35], the “Pre-emergence herbicidal activity, ALOMY (damage score 0-5)” value (“Pre-emergence herbicidal activity, ALOMY” for short) in assay [1] stood at 0. In addition, the “Pre-emergence herbicidal activity, AVEFA (damage score 0-5)” value (shortened to “Pre-emergence herbicidal activity, AVEFA”) in assay [2] was 1. In assay [3], the “Pre-emergence herbicidal activity, TRAZW (damage score 0-5)” value (“Pre-emergence herbicidal activity, TRAZW” below) is given as 0. Further, in assay [4], the “Pre-emergence herbicidal activity, ECHCG (damage score 0-5)” value (from here on “Pre-emergence herbicidal activity, ECHCG”) stood at 4. The “Pre-emergence herbicidal activity, LOLPE (damage score 0-5)” value (shortened to “Pre-emergence herbicidal activity, LOLPE”) in assay [5] is recorded as 1. Besides, the “Pre-emergence herbicidal activity, SETFA (damage score 0-5)” value (“Pre-emergence herbicidal activity, SETFA” below) in [6] turned out to be 4. In addition, the “Post-emergence herbicidal activity, AVEFA (damage score 0-5)” value in assay [7] is given as 3. The “Post-emergence herbicidal activity, ECHCG (damage score 0-5)” value in assay [8] was determined as 5. In assay [9], the “Post-emergence herbicidal activity, LOLPE (damage score 0-5)” value was 2. Besides, the “Post-emergence herbicidal activity, ALOMY (damage score 0-5)” value in assay [10] is listed as 0. For the same compound, the “Post-emergence herbicidal activity, SETFA (damage score 0-5)” value in assay [11] amounted to 5. The “Post-emergence herbicidal activity, TRAZW (damage score 0-5)” value in [12] is 0.

Take `CC(=O)OC(C)(C)C(=O)Nc1ccc(-c2cncc(F)c2)nc1C(F)(F)F` [Compound C36]: in assay [1], the “Pre-emergence herbicidal activity, ALOMY” value worked out at 0. Besides, the “Pre-emergence herbicidal activity, AVEFA” value in assay [2] was 1. Moreover, the “Pre-emergence herbicidal activity, TRAZW” value in assay [3] is 0. For the same compound, the “Pre-emergence herbicidal activity, ECHCG” value in [4] is reported as 4. In assay [5], the “Pre-emergence herbicidal activity, LOLPE” value is on record as 1. Besides, in assay [6], the “Pre-emergence herbicidal activity, SETFA” value worked out at 4. Besides, the “Post-emergence herbicidal activity, AVEFA (damage score 0-5)” value in [7] was found to be 2. In addition, in [8], the “Post-emergence herbicidal activity, ECHCG (damage score 0-5)” value came to 5. In addition, the “Post-emergence herbicidal activity, LOLPE (damage score 0-5)” value in [9] worked out at 1. In assay [10], the “Post-emergence herbicidal activity, ALOMY (damage score 0-5)” value is on record as 0. Also, in assay [11], the “Post-emergence herbicidal activity, SETFA (damage score 0-5)” value was found to be 5. In addition, the “Post-emergence herbicidal activity, TRAZW (damage score 0-5)” value in assay [12] is reported as 1.

For `CC(C)=CC(=O)Nc1ccc(-c2cncc(F)c2)nc1C(F)(F)F` [Compound C37], the “Pre-emergence herbicidal activity, ALOMY” value in assay [1] was 0. Besides, the “Pre-emergence herbicidal activity, AVEFA” value in [2] turned out to be 1. The “Pre-emergence herbicidal activity, TRAZW” value in [3] is listed as 0. Also, in [4], the “Pre-emergence herbicidal activity, ECHCG” value was 4. In addition, the “Pre-emergence herbicidal activity, LOLPE” value in [5] was 1. For the same compound, the “Pre-emergence herbicidal activity, SETFA” value in assay [6] is recorded as 5. Further, the “Post-emergence herbicidal activity, AVEFA (damage score 0-5)” value in assay [7] amounted to 3. Further, the “Post-emergence herbicidal activity, ECHCG (damage score 0-5)” value in assay [8] was determined as 5. For the same compound, the “Post-emergence herbicidal activity, LOLPE (damage score 0-5)” value in assay [9] came out at 2. For the same compound, the “Post-emergence herbicidal activity, ALOMY (damage score 0-5)” value in assay [10] came to 0. The “Post-emergence herbicidal activity, SETFA (damage score 0-5)” value in [11] stood at 5. Also, in assay [12], the “Post-emergence herbicidal activity, TRAZW (damage score 0-5)” value is recorded as 0.

As to `CC(C)=CC(=O)N(C(=O)C=C(C)C)c1ccc(-c2cncc(F)c2)nc1C(F)(F)F` [Compound C38], in assay [1], the “Pre-emergence herbicidal activity, ALOMY” value was determined as 0. The “Pre-emergence herbicidal activity, AVEFA” value in assay [2] is 0. Also, in assay [3], the “Pre-emergence herbicidal activity, TRAZW” value is on record as 0. Also, the “Pre-emergence herbicidal activity, ECHCG” value in assay [4] was 4. For the same compound, the “Pre-emergence herbicidal activity, LOLPE” value in [5] is on record as 0. In addition, the “Pre-emergence herbicidal activity, SETFA” value in assay [6] is 5. Further, the “Post-emergence herbicidal activity, AVEFA (damage score 0-5)” value in assay [7] is recorded as 3. The “Post-emergence herbicidal activity, ECHCG (damage score 0-5)” value in [8] worked out at 4. Also, the “Post-emergence herbicidal activity, LOLPE (damage score 0-5)” value in assay [9] was 2. Besides, the “Post-emergence herbicidal activity, ALOMY (damage score 0-5)” value in [10] is 0. The “Post-emergence herbicidal activity, SETFA (damage score 0-5)” value in [11] amounted to 5. For the same compound, the “Post-emergence herbicidal activity, TRAZW (damage score 0-5)” value in assay [12] stood at 0.
